Here are results for 33 molecules from patent US20260234129A1, “NOVEL IMIDAZOLE DERIVATIVE AND USE THEREOF” (PELEMED CO., LTD., priority 2023, published 2026).

Where only a bound is given, the exact number is not on record here.

For the first experiment, the system named is MV4-11 cells (FLT3-ITD-expressing AML cell line). Briefly: Cell proliferation inhibition, Alamar Blue. Format: cell-based, human. Particulars: 72 hours of compound treatment, read-out: Cellular (GI50) MV4-11. As to the method: The cell proliferation inhibition experiment on acute myeloid leukemia (AML) cell lines was performed using FL3-ITD-expressing AML cell line MV4-11, BaF3-ITD-FLT3 F691L cell line, and BaF3-ITD-FLT3 D835Y cell line to test FLT3 inhibitory activity. All cell lines were human-derived cell lines, and the sources and culture conditions for each cell line are as follows.
Cell viability was assessed by a resazurin redox-based assay using the Alamar Blue Assay kit (Invitrogen, USA). Specifically, MV4-11, BaF3-ITD-FLT3-F691L, and BaF3-ITD-FLT3-D835Y cells were plated in 384-well plates at 8,000 cells in 45 μL of medium. As a negative control, dimethyl sulfoxide (DMSO) was added together with the compound. After three days (72 hours) of compound treatment, 5 μL of the Alamar Blue kit reagent was added to each well of the 384-well plates, followed by incubation at 37° C. for 2 hours in a humidified CO2 incubator. After incubation, fluorescence intensity (Flu) was measured at 544 nm and 590 nm using a SpectraMax iD3 Multi Mode Microplate Reader (Molecular Devices, ID3-STD).
`O=C(N[C@@H]1[C@@H]2CNC[C@@H]21)c1ccc2[nH]nc(-c3nc4ccc(N5CCOCC5)cc4[nH]3)c2c1` [Example 71, N-((1R,5S,6r)-3-azabicyclo[3.1.0]hexan-6-yl)-3-(6-morpholino-1H-benzo[d]imidazol-2-yl)-1H-indazole-5-carboxamide]: the 50% growth inhibitory concentration (GI50) (commonly the concentration giving 50% growth inhibition) lay in the range of 0.01 to 0.1 µM.

Still in this experiment, the particulars now being: Homo sapiens, MV4-11, 72 hours of compound treatment, read-out: Cellular (GI50) MV4-11.
For `NCCCNC(=O)c1ccc2[nH]nc(-c3ncc(-c4cccc(F)c4)[nH]3)c2c1` [Example 82, N-(3-aminopropyl)-3-(5-(3-fluorophenyl)-1H-imidazol-2-yl)-1H-indazole-5-carboxamide], the GI50 was in the range of 0.01 to 0.1 µM. On to `CN(C)CCNC(=O)c1ccc2[nH]nc(-c3nc4ccc(F)cc4[nH]3)c2c1` [Example 35, N-(2-(dimethylamino)ethyl)-3-(6-fluoro-1H-benzo[d]imidazol-2-yl)-1H-indazole-5-carboxamide], for which the GI50 was 0.01 to 0.1 µM. Turning to `COc1c(Cl)cc(Cl)cc1-c1cnc(-c2n[nH]c3ccc(C(=O)NCCCN)cc23)[nH]1` [Example 87, N-(3-aminopropyl)-3-(5-(3,5-dichloro-2-methoxyphenyl)-1H-imidazol-2-yl)-1H-indazole-5-carboxamide], the GI50 lay within 0.01 to 0.1 µM. Consider `CN1CCN(C(=O)c2ccc3[nH]nc(-c4nc(-c5ccccc5)c[nH]4)c3c2)CC1` [Example 99, (4-methylpiperazin-1-yl)(3-(4-phenyl-1H-imidazol-2-yl)-1H-indazol-5-yl)methanone], for which the GI50 is over 1 µM. The same measure, in the same setting: then `NCCCNC(=O)c1ccc2[nH]nc(-c3ncc(-c4cccc(N)c4)[nH]3)c2c1` [Example 93, 3-(5-(3-aminophenyl)-1H-imidazol-2-yl)-N-(3-aminopropyl)-1H-indazole-5-carboxamide], with 0.1 to 1 µM; and `CNC1CCN(C(=O)c2ccc3[nH]nc(-c4nc5ccc(N6CCOCC6)cc5[nH]4)c3c2)CC1` [Example 70, (4-(methylamino)piperidin-1-yl)(3-(6-morpholino-1H-benzo[d]imidazol-2-yl)-1H-indazol-5-yl)methanone], with 0.01 to 0.1 µM; and `CN(C)CCCNC(=O)c1ccc2[nH]nc(-c3nc4ccc(C#N)cc4[nH]3)c2c1` [Example 10, 3-(6-cyano-1H-benzo[d]imidazol-2-yl)-N-(3-(dimethylamino)propyl)-1H-indazole-5-carboxamide], with 0.1 to 1 µM. Consider `CN(C)CCn1c(-c2n[nH]c3ccc(C(=O)NCCCN)cc23)nc2ccc(F)cc21` [Example 107, N-(3-aminopropyl)-3-(1-(2-(dimethylamino)ethyl)-6-fluoro-1H-benzo[d]imidazol-2-yl)-1H-indazole-5-carboxamide], for which the GI50 was over 1 µM. Consider `CN1CCN(CCn2c(-c3n[nH]c4ccc(C(=O)NCCCN)cc34)nc3ccc(F)cc32)CC1` [Example 108, N-(3-aminopropyl)-3-(6-fluoro-1-(2-(4-methylpiperazin-1-yl)ethyl)-1H-benzo[d]imidazol-2-yl)-1H-indazole-5-carboxamide], for which the GI50 is over 1 µM. With `CC(C)n1c(-c2n[nH]c3ccc(C(=O)NCCCN)cc23)nc2ccc(F)cc21` [Example 105, N-(3-aminopropyl)-3-(6-fluoro-1-isopropyl-1H-benzo[d]imidazol-2-yl)-1H-indazole-5-carboxamide], the GI50 was over 1 µM. For the molecule `C[C@@H]1CN(c2ccc3nc(-c4n[nH]c5ccc(C(=O)NCCCN)cc45)[nH]c3c2)C[C@H](C)N1` [Example 19, N-(3-aminopropyl)-3-(6-((3S,5R)-3,5-dimethylpiperazin-1-yl)-1H-benzo[d]imidazol-2-yl)-1H-indazole-5-carboxamide], the GI50 was 0.1 to 1 µM.

For `NCCCNC(=O)c1ccc2[nH]nc(-c3ncc(-c4ccc(C(F)(F)F)cc4)[nH]3)c2c1` [Example 86, N-(3-aminopropyl)-3-(5-(4-(trifluoromethyl)phenyl)-1H-imidazol-2-yl)-1H-indazole-5-carboxamide], the GI50 is 0.01 to 0.1 µM. On to `CC(=O)N1CC2(C1)CN(C(=O)c1ccc3[nH]nc(-c4nc5ccc(N6CCOCC6)cc5[nH]4)c3c1)C2` [Example 60, 1-(6-(3-(6-morpholino-1H-benzo[d]imidazol-2-yl)-1H-indazole-5-carbonyl)-2,6-diazaspiro[3.3]heptan-2-yl)ethan-1-one], for which the concentration for 50% growth inhibition (GI50) was over 1 µM. Still for that read-out and setting: then `NCCCNC(=O)c1ccc2c(-c3nc4ccc(F)cc4[nH]3)n[nH]c2c1` [Example 110, N-(3-aminopropyl)-3-(6-fluoro-1H-benzo[d]imidazol-2-yl)-1H-indazole-6-carboxamide], with over 1 µM. For `NCCNC(=O)c1ccc2[nH]nc(-c3nc4ccc(F)cc4[nH]3)c2c1` [Example 37, N-(2-aminoethyl)-3-(6-fluoro-1H-benzo[d]imidazol-2-yl)-1H-indazole-5-carboxamide], the GI50 is 0.01 to 0.1 µM. Take `NCCCNC(=O)c1ccc2[nH]nc(-c3ncc(-c4cccc(O)c4)[nH]3)c2c1` [Example 92, N-(3-aminopropyl)-3-(5-(3-hydroxyphenyl)-1H-imidazol-2-yl)-1H-indazole-5-carboxamide]: the GI50 lay in the range of 0.1 to 1 µM. `NCCCNC(=O)c1ccc2[nH]nc(-c3ncc(-c4ccccc4F)[nH]3)c2c1` [Example 83, N-(3-aminopropyl)-3-(5-(2-fluorophenyl)-1H-imidazol-2-yl)-1H-indazole-5-carboxamide]: the GI50 was in the range of 0.01 to 0.1 µM. For `O=C(c1ccc2[nH]nc(-c3nc(-c4ccccc4)c[nH]3)c2c1)N1CCN(c2ccc(F)cc2)CC1` [Example 97, (4-(4-fluorophenyl)piperazin-1-yl)(3-(4-phenyl-1H-imidazol-2-yl)-1H-indazol-5-yl)methanone], the GI50 is over 1 µM.

With `COCc1cnc(-c2n[nH]c3ccc(C(=O)NCCCN)cc23)[nH]1` [Example 114, N-(3-aminopropyl)-3-(5-(methoxymethyl)-1H-imidazol-2-yl)-1H-indazole-5-carboxamide], the 50% growth inhibitory concentration (GI50) is over 1 µM. Turning to `CN(C)CCOc1ccc2nc(-c3n[nH]c4ccc(C(=O)NCCCN)cc34)[nH]c2c1` [Example 24, N-(3-aminopropyl)-3-(6-(2-(dimethylamino)ethoxy)-1H-benzo[d]imidazol-2-yl)-1H-indazole-5-carboxamide], the 50% growth inhibitory concentration (GI50) is 0.1 to 1 µM. On the same count and under the same terms, then `NCCCNC(=O)c1ccc2[nH]nc(-c3ncc(COc4ccccc4)[nH]3)c2c1` [Example 115, N-(3-aminopropyl)-3-(5-(phenoxymethyl)-1H-imidazol-2-yl)-1H-indazole-5-carboxamide], with over 1 µM. For the molecule `NC1CCN(CCNC(=O)c2ccc3[nH]nc(-c4nc5ccccc5[nH]4)c3c2)CC1` [Example 8, N-(2-(4-aminopiperidin-1-yl)ethyl)-3-(1H-benzo[d]imidazol-2-yl)-1H-indazole-5-carboxamide], the 50% growth inhibitory concentration (GI50) fell in the range of 0.01 to 0.1 µM.

Regarding `NCCCNC(=O)c1ccc2[nH]nc(-c3ncc(-c4ccc(Cl)c(F)c4)[nH]3)c2c1` [Example 85, N-(3-aminopropyl)-3-(5-(4-chloro-3-fluorophenyl)-1H-imidazol-2-yl)-1H-indazole-5-carboxamide], the GI50 lay in the range of 0.01 to 0.1 µM. With `COCCn1c(-c2n[nH]c3ccc(C(=O)NCCCN)cc23)nc2ccc(F)cc21` [Example 106, N-(3-aminopropyl)-3-(6-fluoro-1-(2-methoxyethyl)-1H-benzo[d]imidazol-2-yl)-1H-indazole-5-carboxamide], the GI50 was over 1 µM. Still for that read-out and setting: the result for `NC1CCN(CCNC(=O)c2ccc3[nH]nc(-c4nc(-c5ccccc5)c[nH]4)c3c2)CC1` [Example 103, N-(2-(4-aminopiperidin-1-yl)ethyl)-3-(4-phenyl-1H-imidazol-2-yl)-1H-indazole-5-carboxamide] reads over 1 µM; that for `NCCCNC(=O)c1ccc2[nH]nc(-c3ncc(-c4ccc(F)cc4)[nH]3)c2c1` [Example 81, N-(3-aminopropyl)-3-(5-(4-fluorophenyl)-1H-imidazol-2-yl)-1H-indazole-5-carboxamide], 0.01 to 0.1 µM; that for `NCCCNC(=O)c1ccc2[nH]nc(-c3nc4ccc(Br)cc4[nH]3)c2c1` [Example 28, N-(3-aminopropyl)-3-(6-bromo-1H-benzo[d]imidazol-2-yl)-1H-indazole-5-carboxamide], 0.01 to 0.1 µM.

For `NCCCNC(=O)c1ccc2[nH]nc(-c3ncc(-c4cccc([N+](=O)[O-])c4)[nH]3)c2c1` [Example 89, N-(3-aminopropyl)-3-(5-(3-nitrophenyl)-1H-imidazol-2-yl)-1H-indazole-5-carboxamide], the 50% growth inhibitory concentration (GI50) was in the range of 0.1 to 1 µM.

Turning to `Nc1ccc(NC(=O)c2ccc3[nH]nc(-c4nc5ccc(N6CCOCC6)cc5[nH]4)c3c2)cc1` [Example 72, N-(4-aminophenyl)-3-(6-morpholino-1H-benzo[d]imidazol-2-yl)-1H-indazole-5-carboxamide], the GI50 was 0.01 to 0.1 µM. Consider `O=C(NC1CCNCC1)c1ccc2[nH]nc(-c3nc4ccc(F)cc4[nH]3)c2c1` [Example 40, 3-(6-fluoro-1H-benzo[d]imidazol-2-yl)-N-(piperidin-4-yl)-1H-indazole-5-carboxamide], for which the 50% growth inhibitory concentration (GI50) is 0.01 to 0.1 µM. `CN(C)CCNC(=O)c1ccc2[nH]nc(-c3nc4ccc(N5CCOCC5)cc4[nH]3)c2c1` [Example 62, N-(2-(dimethylamino)ethyl)-3-(6-morpholino-1H-benzo[d]imidazol-2-yl)-1H-indazole-5-carboxamide]: the GI50 is under 0.01 µM. For `NCCCNC(=O)c1ccc2[nH]nc(-c3nc4ccc(F)cc4n3CCO)c2c1` [Example 109, N-(3-aminopropyl)-3-(6-fluoro-1-(2-hydroxyethyl)-1H-benzo[d]imidazol-2-yl)-1H-indazole-5-carboxamide], the GI50 was over 1 µM.
